Assays:
[1] = Physical characteristics: solubility; format: physicochemical; conditions: methanol
From the text: White amorphous powder • 2. […] Molecular weight determined by mass spectroscopy of 791.4784, consistent with an empirical formula of C₄₃H₆₉NO₁₂

mouse T lymphocytes = experiment: T-cell proliferation assay (ionomycin plus PMA induced T-cell stimulation, tritiated thymidine uptake); format: cell-based, C57Bl/6 mice; conditions: result in words
Method: The principle of this assay is to measure the proliferation of mouse T lymphocytes stimulated with the combination of ionomycin plus PMA. A positive sample in this assay will inhibit T-cell proliferation, as indicated by reduced tritiated thymidine uptake.
An equal volume of methanol was added to a 1 ml sample of each of the above broths producing a 1:2 whole broth equivalent (WBE). The samples were centrifuged at 3,000 rpm for 5 minutes and the resulting supernatants were used as starting materials for the T-cell proliferation assay. […]
Purified T lymphocytes were resuspended at 10⁶ cells/ml in complete culture medium composed of RPMI 1640 medium with 10% heat-inactivated fetal calf serum, […], 1 mM sodium pyruvate, 2 x 10⁻⁵ M 2-mercaptoethanol and 50 µg/ml gentamycin. […] The proliferation of T lymphocytes was assessed by measurement of tritiated thymidine incorporation. […] Radioactivity of filter discs corresponding to individual wells was measured by standard liquid scintillation counting methods (Betacounter). Mean counts per minute of replicate wells were calculated and the results expressed as percent inhibition of tritiated thymidine uptake (proliferation) as follows: [formula]

| SMILES | Solubility [1] | inhibition of T-cell activation (mouse T lymphocytes) | immunosuppressive activity (mouse T lymphocytes; for ascomycin no test is named) |
| --- | --- | --- | --- |
| CC[C@@H]1/C=C(\C)C[C@H](C)C[C@H](OC)[C@H]2O[C@@](O)(C(=O)C(=O)N3CCCC[C@H]3C(=O)O[C@H](/C(C)=C/[C@@H]3CC[C@@H](O)[C@H](OC)C3)[C@H](C)[C@@H](O)CC1=O)[C@H](C)C[C@@H]2OC [immunomycin] | Solubility in methanol | positive inhibition of T-cell activation |  |
| CC[C@@H]1/C=C(\C)C[C@H](C)C[C@H](OC)[C@H]2O[C@@](O)(C(=O)C(=O)N3CCCC[C@H]3C(=O)O[C@H](/C(C)=C/[C@@H]3CC[C@@H](O)[C@H](OC)C3)[C@H](C)[C@@H](O)CC1=O)[C@H](C)C[C@@H]2OC [ascomycin, reference compound] |  |  | exhibits immunosuppressive activity |
